Assays:
Format in all cases: physicochemical
[1] = XRPD of polymorphs after air-drying or vacuum-drying (solid form stability)
Procedure: Large scale studies were performed with HM30181 mesylate Type A starting material on a 200 mg scale as described below. Solids were isolated by vacuum filtration. The wet cakes from filtration from DMA, DMF, and NMP slurries were washed with 1 mL to 2 mL methanol to remove solvents. […]
(§1) XRPD was performed using a Panalytical X'Pert3™ Powder XRPD and on a Si zero-background holder. The 2θ position was calibrated against a Panalytical™ 640 Si powder standard. Details of XRPD used in the experiments are listed below in Table 20.

[2] = Cyclic DSC heating followed by XRPD / 1H-NMR (thermal stability of solid form)
Procedure: Based on ^1H-NMR data, decomposition of Type A initiated after heating to 200° C. (see FIG. 14).
as §1
In some studies, a cyclic DSC method was used. In such cycling DSC methods temperature was ramped from ambient to 150° C. at a heating rate of 10° C./min using N2 as the purge gas, then cooled by 10° C. to 25° C. This temperature cycle repeated twice (see Table 22).
(§2) Proton NMR were obtained using a Varian 200M™ NMR in deuterated DMSO (DMSO-d6).

[3] = Dynamic Vapor Sorption (DVS) with XRPD post-DVS; conditions: for Hygroscopicity by DVS (in words) / Water absorbed by DVS: 0-95% RH
Procedure: as §1
Dynamic Vapor Sorption (DVS) was measured using a SMS (Surface Measurement Systems™) DVS Intrinsic. Parameters for DVS test are listed below in Table 24.

[4] = 1H-NMR check for disproportionation or degradation; conditions: slurry in DMF at 150° C., 5 days
Source text: At large scale, a slurry of HM30181 mesylate Type A starting material in methanol at ambient conditions generated a mixture of HM30181 mesylate Type B and HM30181 mesylate Type A after 9 days (see FIG. 32). After 14 days, the slurry in methanol generated a HM30181 mesylate Type N polymorph. […] A scaled-up slurry of HM30181 mesylate Type A starting material in DMA yielded HM30181 mesylate Type E after 6 days (see FIG. 35). […] A scaled-up slurry of HM30181 mesylate Type A starting material in DMF at 50° C. yielded HM30181 mesylate Type F rather than the expected HM30181 mesylate Type G after 9 days (see FIG. 36). […] This slurry was heated in an attempt to generate HM30181 mesylate Type G. A scaled-up slurry of HM30181 mesylate Type A starting material in DMF at 100° C. yielded HM30181 mesylate Type F after 2 days (see FIG. 37). A scaled-up slurry of HM30181 mesylate Type A starting material in DMF at 150° C. yielded a previously unobserved XRPD pattern after 5 days (see FIG. 37).
By 1H-NMR, HM30181 mesylate Type E contained DMA, HM30181 mesylate Type F contains DMF, and HM30181 mesylate Type N contains MeOH.
as §2

## COc1cc2c(cc1OC)CN(CCc1ccc(-n3nnc(-c4cc(OC)c(OC)cc4NC(=O)c4cc(=O)c5ccccc5o4)n3)cc1)CC2.CS(=O)(=O)O [HM30181 mesylate Type A, HM30181 mesylate]
[1]; air-dried solids from Crash cooling 50° C.-->−20° C., ACN 10 mL, Exp. 6007235-17-C12
  XRPD (air-dry): Type C
[1]; air-dried solids from Slow Cooling 50° C.-->4° C., ACN 10 mL, Exp. 6007235-17-C4
  XRPD (air-dry): Type C
[1]; air-dried solids from Slow Cooling 50° C.-->4° C., DCM 10 mL, Exp. 6007235-17-C5
  XRPD (air-dry): Type C
[2]; 1H-NMR of heated sample
  Heating temperature after which decomposition initiated (1H-NMR): 200 °C
[2]; heated to 110° C.
  XRPD after cyclic DSC: no XRPD change
[2]; heated to 185° C.
  XRPD after cyclic DSC: reduced crystallinity
[2]; heated to 200° C.
  XRPD after cyclic DSC: amorphous material
[3]
  Hygroscopicity by DVS (in words): hygroscopic
  Water absorbed by DVS: 2.26%
[3]; listed as Type A
  Hygroscopicity by DVS (in words): Monohydrate (hygroscopic
  Water absorbed by DVS: to 2.26% at 95% RH)
[3]; after DVS 0-95% RH
  XRPD pattern post-DVS: no change in XRPD pattern observed
[4]
  Chemical stability in DMF slurry by 1H-NMR: resulted in degradation

— patent publication US12227494B2, “Polymorphisms of HM30181 mesylate” (ATHENEX R&D, LLC, priority 2020, dated 2025)
